Source: patent US7872043B2, “Use of furan alkyls for a cellulite cosmetic treatment” (Laboratories Expanscience, priority 2004, dated 2011)

Legend:
[1] = system: mice fattened on a high fat/high sucrose diet (HF/HS); test: Food intake and weight gain of mice on HF/HS diet; type: in vivo; details: curative; TZD 10 mg/kg/dy
Procedure: (§1) We used adult mice (aged 6 weeks) of masculine gender fattened on a high fat/high sucrose diet (HF/HS). Feeding with the HF/HS diet began on mice aged 6 weeks and continued throughout the period of the study. The study was conducted along 2 axes: • prevention: the product was administered as soon as feeding began with the HF/HS diet; • management (curative): the product was administered 12 weeks after the start of the HF/HS diet. Total treatment time (preventive and curative): 23 weeks.
(§2) Each experimental group comprised 10 mice.

[2] = system: ME, FAS, ACC (fatty acid synthesis); test: Liver mRNA expression, real-time Q-RT-PCR: ME, FAS, ACC; type: in vivo, mice; details: TZD; AV102 (0.25%)
Procedure: (§3) In the liver, the mRNA expressions of 8 genes were determined in 5 mice of each group using real-time Q-RT-PCR analysis.

[3] = system: mice fattened on a high fat/high sucrose diet (HF/HS); test: Hepatic metabolism: transaminases and alkaline phosphatase (liver toxicity); type: in vivo; details: TZD and AV102 groups; considered very moderate, does not appear to reflect liver toxicity
[4] = system: mice fattened on a high fat/high sucrose diet (HF/HS); test: Intra Peritoneal Insulin Sensitive Test (IPIST); type: in vivo; details: preventive; TZD 10 mg/kg/day; (3 W***)
From the text: Diabetics suffer from an increase in insulin resistance which leads to hyperglycaemia.

[5] = system: CYP7A1; test: Liver mRNA expression, real-time Q-RT-PCR: CYP7A1; type: in vivo, mice; details: TZD; AV102 (0.25%)
Procedure: as §3

[6] = system: mice fattened on a high fat/high sucrose diet (HF/HS); test: Blood glucose and insulin analysis; type: in vivo; details: TZD 10 mg/kg/day
Procedure: as §1, §2
(§4) Subsequently the following were analysed: lipoprotein profile (by size exclusion chromatography); apolipoportein A1; lipid composition of the liver (liver triglycerides, cholesterol and free fatty acids); histological analysis of the liver and adipose tissue; staining of accumulated lipids in the liver.

[7] = system: PEPCK (target PPARγ); test: Liver mRNA expression, real-time Q-RT-PCR: PEPCK; type: in vivo, mice; details: TZD; AV102 (0.25%)
Procedure: as §3

[8] = system: mice fattened on a high fat/high sucrose diet (HF/HS); test: Plasma lipoprotein profile (size exclusion chromatography); type: in vivo; details: TZD
Procedure: as §1, §2, §4
(§5) The different cholesterol blood levels and different fractions were analysed using a HPLC method.

[9] = system: ACO (target PPARα); test: Liver mRNA expression, real-time Q-RT-PCR: ACO; type: in vivo; details: TZD; AV102 (0.25%); 5 mice per group
Procedure: as §3

[10] = system: PGC-1 (mitochondria biogenesis); test: Muscle/BAT mRNA expression: PGC-1; type: in vivo, mice; details: TZD, AV102 (0.25%)
Procedure: In the brown adipose tissue (BAT) and in the muscles, the mRNA expression of 3 genes was determined in 5 mice of each group by real-time Q-RTR-PCR analysis.

[11] = system: mice fattened on a high fat/high sucrose diet (HF/HS); test: Blood parameters: plasma lipids (total cholesterol, LDL, HDL, TG, FFA); type: in vivo; details: TZD 10 mg/kg/day; for HDL / Total cholesterol: (3 W***)
Procedure: as §1, §2, §4, §5

## CN(CCOc1ccc(CC2SC(=O)NC2=O)cc1)c1ccccn1 (stereo not drawn) [TZD, Rosiglitazone]
[1]
  Mouse wt.: did not cause the overweight mice to lose weight
[2]
  ME, FAS, ACC (fatty acid synthesis) mRNA in the liver: ↑↑
[3]
  Plasma ALP: increase
[4]
  IPIST (insulin sensitivity test): ↓↓
[5]
  CYP7A1 (conversion oxysterol into biliary acids) mRNA in the liver: ↑↑
[6]; curative, (3 W**)
  GLUCOSE (blood): dropped considerably and ↓↓
[6]; preventive
  GLUCOSE (blood): ↓
  INSULIN (blood): ↓
[7]
  PEPCK (target PPARγ) mRNA in the liver: ↑
[8]; curative, after 3 weeks' treatment
  Fractions of HDL and VLDL cholesterol (lipoprotein profiles): reduction
[8]; preventive, weeks 8 and 15
  HDL, LDL and VLDL cholesterol fractions (plasma lipoprotein profiles): reduction
[9]
  ACO (target PPARα) mRNA in the liver: ↑
[10]
  PGC-1 (mitochondria biogenesis) mRNA in muscle/BAT: ↑ (muscle)
[11]; curative
  LDL: reduction
  TG (Triglycerides): No change
  HDL: reduction
  Total cholesterol: reduction
[11]; preventive
  LDL: downward trend
  TG (Triglycerides): significantly reduced
  HDL: significant reduction
  Total cholesterol: significant reduction
